We go through three compounds from US9717790B2, “Sphingoglycolipid analogues” (Victoria Link Limited, priority 2013, dated 2017).

For one series, the system named is B16.OVA melanoma. Nature of the series: Analysis of anti-tumour activity, B16.OVA melanoma challenge. Format: in vivo, C57BL/6 mice. The protocol:
Groups of C57BL/6 mice (n=5) are injected with 1×10^5 live B16.OVA tumour cells subcutaneously on day 0. On day 6 0.23 nmol of the indicated compounds (α-GalCer or CN161) mixed with OVA protein (200 μg) are administered intraveneously. The tumour size is monitored regularly with calipers until the first animal in each group reached 200 mm^2, at which point the whole group is culled.
Control animals are injected with the long peptide alone, α-GalCer alone, or left untreated. The mean tumour sizes per group (n=5)±SEM are shown.
Groups of C57BL/6 mice (n=5) receive a subcutaneous injection into the flank of 1×10^5 B16.OVA melanoma cells, which express a cDNA encoding the chicken ovalbumin (OVA) sequence. The different groups are treated 7 days later, when tumours are fully engrafted, by intravenous injection of one of the following; vaccines as indicated in text and figure legends. Mice are monitored for tumour growth every 3-4 days, and tumour size for each group is calculated as the mean of the products of bisecting diameters (+SEM). Measurements are terminated for each group when the first animal develops a tumour exceeding […].

For the next series, the system named is human NKT cells. Nature of the series: Proliferation of human NKT cells in PBMC culture. In kind it is cell-based. The note with it: PBMC from one donor, 7 days culture with IL-2. On the procedure:
Peripheral blood mononuclear cells from one donor are cultured for 7 days with different doses of the indicated compounds in the presence of IL-2, and then the percentages of NKT cells in the final cultures determined by flow cytometry with fluorescent α-GalCer-loaded CD1d tetramers and anti-CD3. Data are expressed as percentage of NKT cells (α-GalCer/CD1d tetramer and anti-CD3-binding cells) of total T cells (all anti-CD3-binding cells).
Peripheral blood is drawn into heparinized tubes, diluted 1:1 in PBS, and layered over a sodium diatrizoate and polysaccharide solution (Lymphoprep; Axis-Shield, Oslo, Norway) before centrifugation at 800×g for 25 minutes at room temperature to collect the peripheral blood mononuclear cell (PBMC) fraction, which contains NKT cells. To assess proliferation of NKT cells, PBMC (2×10^5 per well) are cultured at 37° C. in Iscove's Modified Dulbecco's Medium with 5% human AB serum and the indicated concentrations of α-GalCer, or CN161, with recombinant human IL-2 50 U/mL (Chiron Corporation, Emeryville, Calif.) added after 24 hours. After 7 days of culture, the cells are analysed by flow cytometry, using fluorescent soluble CD1d tetramers that have been loaded with α-GalCer to identify the NKT cells. […]

The subject of series [1] is cytokines IL-12p70, IL-4 and IFN-γ. Nature of the series: Analysis of cytokine release into serum. Particulars: for ratio of cytokines IFN-γ/IL-4: 0.23 nmol intravenously, blood at 18 h (IFN-γ) and 3 h (IL-4), compared to α-GalCer. Format: in vivo, C57BL/6 mice. On the procedure:
Groups of C57BL/6 mice (n=3) are injected intravenously with 0.23 nmol of the indicated compounds.
Each compound of the invention is supplied as formulated product (see example 3), and diluted in water for delivery (0.23 nmol/mouse) by intravenous injection into the lateral tail vein. In humans the expected therapeutic dose lies in the 50-4800 (μg/m^2) range (Giaccone, Punt et al. 2002). Note, 0.23 nmol in a mouse is a human equivalent dose of 30 μg/m^2 for α-GalCer.
Blood is collected from the lateral tail vein at different time intervals after glycolipid administration. Serum is collected after blood has clotted, and levels of cytokines IL-12p70, IL-4 and IFN-γ are assessed by cytokine bead array technology (Biolpex, Biorad), according to the manufacturer's instructions.

For series [2], the system named is C1498 acute leukemia cells. Nature of the series: Analysis of anti-leukemia activity, C1498 challenge. In kind it is in vivo, mice. The protocol:
The prophylactic vaccines consist of irradiated C1498 cells that are incubated with compounds of the invention for 24 h. Control animals are injected with irradiated C1498 cells alone, compound alone, or left untreated. The time to onset of leukemia-associated symptoms are shown. (A) Analysis of vaccines incorporating CN161. (B) Analysis of vaccines incorporating α-GalCer.
To generate cell-based vaccines, C1498 acute leukemia cells are cultured for 24 h in complete IMDM supplemented with 200 ng/ml of α-GalCer or 200 ng/ml CN161, washed three times with PBS, and γ-irradiated (150 Gy). Vaccines comprising of 7.5×10^5 cells are administered intravenously via the lateral tail vein. Mice are monitored for onset of leukemia-associated symptoms, such as weight loss, hunching or reduced grooming. All experiments are conducted with five animals per treatment group, with controls including a leukemia-only group.

A further series relates to SVYDFFVWL-loaded targets. Nature of the series: In vivo cytotoxic capacity of TRP-2 specific T cells after vaccination. The note with it: 0.23 nmol compound with long TRP-2 peptide (0.57 nmol) intravenously; targets injected 7 days after vaccination. On the procedure: Control animals are injected with the long peptide alone, or α-GalCer alone. […] To discriminate the targets from host tissue, the injected cells are labelled with the fluorescent dye carboxyfluorescein succinimidyl ester (CFSE). A cohort of syngeneic splenocytes (without peptide) labelled with the fluorescent dye cell tracker orange are also injected to serve as controls. Killing is defined as the percentage of peptide-loaded targets killed relative to control cells. Each treatment group contained 5 animals with mean percentage of killing per group±SEM shown.

For series [3] the following is noted: in vivo; cited from earlier work.
The conditions of series [4]: cited from earlier work.
Setting [5] is: cell-based vaccine: irradiated C1498 cells incubated with compound (200 ng/ml) for 24 h, intravenously.

“Also recorded” adds a separate entry of the source. A value given as a limit tells only on which side of the number the result lay.

`CCCCCCCCCCCCCCCCCCCCCCCCCC(=O)N[C@@H](C[C@]1(O)O[C@H](CSSC[C@H]2O[C@@](O)(C[C@H](NC(=O)CCCCCCCCCCCCCCCCCCCCCCCCC)[C@H](O)[C@H](O)CCCCCCCCCCCCCC)[C@H](O)[C@@H](O)[C@H]2O)[C@H](O)[C@H](O)[C@H]1O)[C@H](O)[C@H](O)CCCCCCCCCCCCCC` [CN161, 6,6′-Disulfanediylbis[6-deoxy-1-((2S,3S,4R)-3,4-dihydroxy-2-(hexacosanoylamino)octadecyl)-α-D-galactopyranose]]: the “antitumour activity against B16.OVA melanoma (tumour growth)” value in the series with B16.OVA melanoma (0.23 nmol compound with long TRP2 peptide (0.57 nmol) intravenously) was “delayed tumour growth; also recorded: anti-tumour activity”. The “antitumour activity against B16.OVA melanoma” value with B16.OVA melanoma (compound with long OVA peptide KISQAVHAAHAEINEAGRESIINFEKLTEWT intravenously) is “equivalent anti-tumour activity”. For the same compound, the “vaccine adjuvant activity, progression of B16.OVA melanoma” value with B16.OVA melanoma (therapeutic challenge, 0.23 nmol compound mixed with OVA protein (200 μg) intravenously) was “potent vaccine adjuvant activity”. Also, the “proliferation of iNKT cells (percentage of NKT cells of total T cells)” value with human NKT cells is “able to induce the proliferation of iNKT cells”. In addition, the “ratio of cytokines IFN-γ/IL-4” value in series [1] is reported as “higher ratio of IFN-γ/IL-4”. Moreover, the “anti-leukemia activity (time to onset of leukemia-associated symptoms)” value (shortened to “anti-leukemia activity”) in series [2] (setting [5]) is listed as “anti-leukemia activity; also recorded: significant protection”; in series [2] (compound injected alone), “anti-leukemia activity; also recorded: can provide protection”. The “cytotoxic response (killing of peptide-loaded targets)” value with SVYDFFVWL-loaded targets is listed as “potent antigen-specific cytotoxicity; also recorded: greater cytotoxic response”.
Regarding `CCCCCCCCCCCCCCCCCCCCCCCCCC(=O)N[C@@H](CO[C@H]1O[C@@H]2CO[C@@H]2[C@H](O)[C@H]1O)[C@H](O)[C@H](O)CCCCCCCCCCCCCC` [CN154, (2S,3S,4R)-1-(4,6-Anhydro-α-D-galactopyranosyloxy)-2-hexacosanoylamino-3,4-octadecandiol], the “ratio of cytokines IFN-γ/IL-4” value in series [1] is listed as “higher ratio of IFN-γ/IL-4”.
For `CCCCCCCCCCCCCCCCCCCCCCCCCC(=O)N[C@@H](CO[C@H]1O[C@H](CO)[C@H](O)[C@H](O)[C@H]1O)[C@H](O)[C@H](O)CCCCCCCCCCCCCC` [α-GalCer, α-Galactosylceramide], the “efficacy in human clinical trials” value in series [3] was “lack of efficacy”. Also, in series [1] (after injection), the “time of peak IFN-γ level in the serum” value was above 12 h, the “time of peak IL-12p70 level in the serum” value stood at 6 h and the “time of peak production of IL-4 in the serum” value lay within 2 to 3 h. For the same compound, the “anti-leukemia activity” value in series [2] (setting [5]) is “significant protection”. Besides, the “anti-leukemia activity” value in series [2] (compound injected alone) was “not active and not”. Besides, the solubility result in series [4] is given as “poor solubility”.
